Consider 3 compounds from patent US20210379088A1, “CANCER REGRESSION BY INDUCING A REGENERATION-LIKE RESPONSE” (VIB VZW, priority 2018, published 2021).

One assay deals with liver. As to conditions: mice, feeding for 5 days with 0.2% cholic acid; cited from earlier work.
Assay [1] deals with N-Akt tumors (intrahepatic cholangiocarcinoma). Kind of assay: N-Akt intrahepatic cholangiocarcinoma in Apo>hYAP1SA mice, doxycycline-induced hYAP1SA expression in peritumoral hepatocytes. It is filed as in vivo, mouse. The procedure:
For intrahepatic delivery of the transposon system (Kang et al., 2011), eight to ten-week-old mice were secured and hydrodynamically injected with 1 μg pCMV/SB11, 4 μg pSBbi-puro-myrAKT-HA, 20 μg of pSBbi-puro-myc-NICD, or 10 μg of cMyc-IRES-NRas via lateral tail vein. For the expression of SB-Cre^ERT2 or inducible Bcl2, 15 μg of pSBbi-puro-Cre^ERT2 or 10 μg of pSBTetON—RH-Flag-Bcl2, respectively, were added to the plasmid mixture. All plasmids were diluted in sterile filtered 0.9% NaCl, and the total volume was adjusted to 10% (in ml) of the total body weight (in grams).
(§1) For conditional deletion of Yap and Taz, tamoxifen was administered for 5 consecutive days, via intraperitoneal injection at a concentration of 1.6 mg/kg in corn oil. In order to activate the expression of TetON-Bcl2 or human YAP expression in Apo>hYAP^1SA mice, 0.2 mg/ml of doxycycline was diluted in filtered sterile drinking water supplemented with 2.5% sucrose and administered ad libido. Doxycycline containing water bottles were protected from light and replaced every other day.
(§2) All quantifications were performed using ImageJ software. Quantification of relative tumor area was done by measuring the tumor area (marked by HA-Akt positive cells in N-Akt model, phospho-ERK expression in Myc-Ras model or S100 expression in melanoma model) and the total area (marked by DAPI). […] We inferred absolute tumor load by multiplying the tumor area by the liver weight of each mouse (absolute tumor load (cm^3)=tumor area (cm)×liver weight (grams).
We next tested whether overexpression of a constitutively active form of YAP (YAP^1SA; this is the YAP variant carrying the mutation Ser127Ala; see description hereinabove), due to mutation of the main Lats1/2 phosphorylation site, is sufficient to recapitulate the tumor regression caused by Lats1/2 deletion. We used transgenic mice that conditionally overexpressed human YAP^1SA in hepatocytes under the control of a doxycycline (Dox) inducible promoter (TetON system) and where the reverse tetracycline transactivator (rtTA) is expressed under the hepatocyte-specific ApoE promoter (hereafter Apo>hYAP^1SA)(Dong et al., 2007). Upon doxycycline feeding, Apo>hYAP^1SA mice induced hepatocyte proliferation and developed liver overgrowth as previously reported (FIG. 10A,B) (Dong et al. 2007). We then induced N-Akt tumors in Apo>hYAP^1SA mice and induced hYAP^1SA expression after 4 weeks of tumor development by adding doxycycline to their drinking water (FIG. 5A). As expected, YAP protein levels increased in doxycycline treated Apo>hYAP^1SA mice but not in non-treated Apo>hYAP^1SA mice or in doxycycline treated C57BL/6 mice (FIG. 10C). […]

Assay [2] relates to NRAS-mutant metastatic melanoma cells in the liver. Kind of assay: NRas+/INK4a-/- melanoma liver metastases in Apo>hYAP1SA mice, doxycycline-induced hYAP1SA expression. It is filed as in vivo, mouse. As to conditions: Apo>YAP1SA mice injected with 10.000 melanoma cells; 2 weeks after YAP activation by doxycycline in drinking water. The procedure: For intrahepatic seeding of tumor cells, mice were hydrodynamically injected with 10.000 mouse melanoma cells (NRas^+/INK4a^−/−) diluted in sterile minimal essential medium (MEM), adjusted to 10% (in ml) of total body weight (in grams). All injected mice were monitored daily and sacrificed in groups at appropriate time points. All experimental and control groups contained 5 to 10 mice.
as §1
All quantifications were performed using ImageJ software. Quantification of relative tumor area was done by measuring the tumor area (marked by HA-Akt positive cells in N-Akt model, phospho-ERK expression in Myc-Ras model or S100 expression in melanoma model) and the total area (marked by DAPI). […] We inferred absolute tumor load by multiplying the tumor area by the liver weight of each mouse (absolute tumor load (cm^3)=tumor area (cm)×liver weight (grams). […]

A further assay deals with N-Akt tumors. Kind of assay: Control experiments: effect of tamoxifen or AAV-Cre on N-Akt tumor growth in control mice. As to conditions: control mice with N-Akt tumors without floxed-gene deletion (C57BL/6, or Yap fl/fl;Taz fl/fl without SB-CreERT2). It is filed as in vivo, mouse. The procedure: as §1
Adeno-associated virus serotype 8 (AAV8) expressing CRE recombinase under the hepatocyte specific promoter TBG was purchased from UPenn (AAV8.TBG.PI.Cre.rBG, catalog AV-8-PV1091). Mice received 5×10^11 GC of AAV8.TBG.PI.Cre.rBG diluted in 200 ul of 1× phosphate-buffered saline (PBS) by tail vein injection.
as §2

For `C[C@H](CCC(=O)O)[C@H]1CC[C@H]2[C@@H]3[C@H](O)C[C@@H]4C[C@H](O)CC[C@]4(C)[C@H]3C[C@H](O)[C@]12C` [cholic acid], the liver size increase in the assay on liver was 30%.
On to `C[C@H]1c2cccc(O)c2C(=O)C2=C(O)[C@]3(O)C(=O)C(C(N)=O)=C(O)[C@@H](N(C)C)[C@@H]3[C@@H](O)[C@@H]21` [doxycycline], for which the “survival after tumor initiation” value in assay [1] (Apo>hYAP1SA mice, two weeks of doxycycline administration) is “up to 14 weeks”. Also, the “average survival longer than the control mice” value in assay [1] (treated Apo>hYAP1SA mice) turned out to be 4 weeks. Besides, in assay [1] (treated Apo>hYAP1SA mice, after 2 weeks of doxycycline), the “mice with only a few small tumor remnants” value is 5/10. The “treated mice still alive” value in assay [1] (within 6 weeks of tumor initiation, when half of the control mice had died) is “more than 80%”. For the same compound, the “reduction in tumor load” value in assay [2] is given as 98%.
As for `CC/C(=C(\c1ccccc1)c1ccc(OCCN(C)C)cc1)c1ccccc1` [tamoxifen], in the assay with N-Akt tumors, the “effect on tumor development, growth or total tumor volume” value was “not affected”.
